Assay results as given in patent US12491252B2, “Substituted 3-amino-5-phenylbenzamide compounds as covalent inhibitors of enhancer zeste homolog 2 (EZH2) and proteolysis-targeting chimeric derivatives thereof (PROTACs) that induce degradation of EZH2” (Northwestern University, priority 2021, dated 2025).
Like-named read-outs stand apart in the source and are kept apart here.

Columns and labels:
SU-DHL4 cells = test: WST cell viability assay in SU-DHL4 cells; type: cell-based; settings: for IC50: Homo sapiens, variable slope, read-out: IC50 (best-fit value)
Procedure: (§1) Cell proliferation was measured using WST-1 Kit (Clontech) according to manufacturer's protocol.

LNCaP cells [1] = test: Colony assay using LnCaP cells; type: cell-based; settings: FIG. 17B, treatment for 7 days
Procedure: (§2) FIG. 17A-17B. (FIG. 17A) Live imaging cell proliferation of LNCaP cells. Cells were treated with indicated compounds and monitored over 168 hours for proliferation by phase object confluence. DMSO is set as the negative control. […] (FIG. 17B) Colony assays using LnCaP cells after treatment with the indicated compounds for 7 days.

EZH2 [2] = test: Western blot of EZH2 in SU-DHL4 cells; type: cell-based; settings: FIG. 33, 48 hours
C4-2B cells [3] = test: Colony assay using C4-2B cells; type: cell-based; settings: FIG. 20B, treatment for 7 days
Procedure: as §2, with “20A-20B.” for “17A-17B.”, “20A)” for “17A)”, “C4-2B” for “LNCaP”, “20B)” for “17B)”, “C4-2B” for “LnCaP”

EZH2 [4] = test: Western blot of EZH2 in SU-DHL6 cells; type: cell-based; settings: FIG. 33, 48 hours
LNCaP cells [5] = test: WST cell proliferation/viability assay in LNCaP cells; type: cell-based; settings: for Inhibition of proliferation (WST): FIG. 19A, 6 days
Procedure: FIG. 19A-19B. (FIG. 19A) WST cell proliferation assay of indicated compounds in LNCaP cells. […] (FIG. 19B) Effects of indicated compounds on EZH2, AR, and FOXA1 by western blot at 1 μM in LNCaP cells.
as §1

C4-2B cells [6] = test: Live imaging cell proliferation of C4-2B cells; type: cell-based; settings: FIG. 20A, monitored over 168 hours
Description: FIG. 20A-20B. (FIG. 20A) Live imaging cell proliferation of C4-2B cells. […] DMSO is set as the negative control. […] (FIG. 20B) Colony assays using C4-2B cells after treatment with the indicated compounds for 7 days.

SUZ12 [7] = test: Western blot of SUZ12 in C4-2B cells; type: cell-based; settings: FIG. 14, 10 μM for 6 days
22Rv1 cells [8] = test: Cell titer glo cell viability assay in 22Rv1 cells; type: cell-based
C4-2B cells [9] = test: Imaging of C4-2B cells (cell density); type: cell-based; settings: FIG. 21, 12 days' treatment
Description: FIG. 21. Imaging of C4-2B cells after 12 days' treatment with the indicated compounds.

SUZ12 [10] = test: Western blot of SUZ12 in SU-DHL6 cells; type: cell-based; settings: FIG. 33, 48 hours
Procedure: (§3) FIG. 33. […] Cell were treated for 48 hours with the indicated concentrations of compounds.

H3K27me3 = test: Western blot of H3K27me3 levels in C4-2B cells; type: cell-based; settings: FIG. 14, 10 μM for 6 days
lymphoma cell lines = test: WST-1 cell proliferation in multiple lymphoma cell lines; type: cell-based; settings: WST-1 Kit
Procedure: as §1

[11] = tested on: prostate cancer cell lines; test: WST-1 cell proliferation in multiple prostate cancer cell lines; type: cell-based; settings: WST-1 Kit
Procedure: as §1

EZH2 [12] = target: T1, EZH2 (Homo sapiens, UniProt Q15910); test: Western blot of EZH2 protein in C4-2B cells; settings: for Degradation of EZH2: FIG. 14, 10 μM for 6 days
T1 sequence (Q15910 whole entry): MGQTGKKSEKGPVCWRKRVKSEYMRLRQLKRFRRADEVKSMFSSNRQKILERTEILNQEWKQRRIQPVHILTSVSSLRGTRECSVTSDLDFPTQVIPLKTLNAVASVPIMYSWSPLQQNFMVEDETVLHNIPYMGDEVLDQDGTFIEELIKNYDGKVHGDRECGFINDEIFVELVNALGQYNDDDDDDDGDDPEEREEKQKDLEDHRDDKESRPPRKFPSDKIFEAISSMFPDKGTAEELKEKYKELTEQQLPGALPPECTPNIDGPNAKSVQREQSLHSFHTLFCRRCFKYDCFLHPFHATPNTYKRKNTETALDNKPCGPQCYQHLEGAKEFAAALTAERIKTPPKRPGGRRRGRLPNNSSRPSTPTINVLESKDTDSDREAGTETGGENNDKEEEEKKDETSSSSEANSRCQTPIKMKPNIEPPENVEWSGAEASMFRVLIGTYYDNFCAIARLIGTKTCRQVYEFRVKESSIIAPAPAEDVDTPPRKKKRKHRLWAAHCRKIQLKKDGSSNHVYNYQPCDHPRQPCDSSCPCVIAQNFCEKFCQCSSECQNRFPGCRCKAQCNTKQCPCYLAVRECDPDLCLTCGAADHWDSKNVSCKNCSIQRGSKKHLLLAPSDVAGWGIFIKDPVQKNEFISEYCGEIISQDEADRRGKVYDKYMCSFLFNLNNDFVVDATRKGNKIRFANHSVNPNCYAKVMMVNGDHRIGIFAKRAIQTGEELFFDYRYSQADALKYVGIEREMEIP
T1 sequence (Q15022 whole entry partner): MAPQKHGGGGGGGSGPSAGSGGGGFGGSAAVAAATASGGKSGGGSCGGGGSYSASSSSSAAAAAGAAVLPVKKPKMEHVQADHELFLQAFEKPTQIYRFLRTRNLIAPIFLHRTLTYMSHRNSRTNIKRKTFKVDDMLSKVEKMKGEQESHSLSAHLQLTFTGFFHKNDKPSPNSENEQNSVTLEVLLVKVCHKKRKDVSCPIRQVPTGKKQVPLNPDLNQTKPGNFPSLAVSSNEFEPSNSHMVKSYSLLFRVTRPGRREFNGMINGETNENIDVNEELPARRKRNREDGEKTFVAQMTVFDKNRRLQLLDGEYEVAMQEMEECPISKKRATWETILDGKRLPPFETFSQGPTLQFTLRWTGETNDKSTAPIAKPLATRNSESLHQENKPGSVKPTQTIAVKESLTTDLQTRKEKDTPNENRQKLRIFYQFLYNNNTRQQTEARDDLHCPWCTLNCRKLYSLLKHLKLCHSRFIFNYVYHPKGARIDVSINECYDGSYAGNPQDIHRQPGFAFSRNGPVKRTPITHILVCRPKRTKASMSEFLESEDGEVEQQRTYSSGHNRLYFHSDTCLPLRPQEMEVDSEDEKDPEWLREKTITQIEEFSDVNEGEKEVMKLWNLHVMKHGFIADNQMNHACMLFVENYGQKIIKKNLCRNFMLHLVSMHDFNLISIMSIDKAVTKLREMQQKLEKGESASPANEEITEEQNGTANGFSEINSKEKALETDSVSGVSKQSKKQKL
T1 sequence (O75530 whole entry partner): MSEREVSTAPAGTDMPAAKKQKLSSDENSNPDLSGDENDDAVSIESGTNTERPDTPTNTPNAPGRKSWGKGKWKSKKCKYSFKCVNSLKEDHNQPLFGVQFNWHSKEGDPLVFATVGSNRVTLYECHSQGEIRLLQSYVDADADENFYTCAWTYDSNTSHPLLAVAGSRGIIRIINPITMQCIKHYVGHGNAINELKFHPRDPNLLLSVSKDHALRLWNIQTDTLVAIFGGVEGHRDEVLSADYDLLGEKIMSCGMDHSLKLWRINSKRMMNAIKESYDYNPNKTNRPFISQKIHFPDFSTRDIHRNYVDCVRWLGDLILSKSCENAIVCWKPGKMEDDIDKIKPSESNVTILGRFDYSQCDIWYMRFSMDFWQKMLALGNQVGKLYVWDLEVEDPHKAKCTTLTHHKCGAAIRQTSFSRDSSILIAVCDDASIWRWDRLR

EZH2 [13] = target: T1, EZH2; test: Western blot of EZH2 protein in DU-145 cells; settings: FIG. 27, 6 days treatment
Description: (Upper right western blot) Western blot analysis of EZH2 protein in DU-145 cells after 6 days treatment.

EED [14] = test: Western blot of EED in SU-DHL6 cells; type: cell-based; settings: FIG. 33, 48 hours
Procedure: as §3

EZH2 [15] = target: T1, EZH2; test: Western blot of EZH2 protein in PC3 cells; settings: FIG. 26, 6 days treatment
Description: (Upper right western blot) Western blot analysis of EZH2 protein in PC3 cells after 6 days treatment.

SUZ12 [16] = test: Western blot of SUZ12 in SU-DHL4 cells; type: cell-based; settings: FIG. 33, 48 hours
Procedure: as §3

LNCaP cells [17] = test: Live imaging cell proliferation of LNCaP cells; type: cell-based; settings: FIG. 17A, monitored over 168 hours
Description: FIG. 17A-17B. (FIG. 17A) Live imaging cell proliferation of LNCaP cells. […] DMSO is set as the negative control. […] (FIG. 17B) Colony assays using LnCaP cells after treatment with the indicated compounds for 7 days.

EZH2 [18] = target: T1, EZH2; test: Ubiquitination of EZH2 in C4-2B cells with MG132; type: cell-based; settings: FIG. 15B, plus proteasome inhibitor MG132
EZH2 [19] = target: T1, EZH2; test: Western blot of EZH2 with esiRNA knockdown of VHL or siRNA control; type: cell-based; settings: FIG. 16, duplicate
Procedure: FIG. 16. Cells were treated with indicated compounds with either esiRNA knockdown of VHL or siRNA control (no EZH2 knockdown) and blotted for EZH2 and VHL. […] Experiment was run in duplicate with both replicates shown on the left and right sides.

C4-2B cells [20] = test: WST cell proliferation assay in C4-2B cells; type: cell-based; settings: FIG. 22, 6 days
Procedure: FIG. 22A-22B. WST cell proliferation assay of indicated compounds in C4-2B cells. Cells were treated for 6 days. […] (FIG. 19B) Effects of indicated compounds on EZH2, AR, and FOXA1 by western blot at 1 μM in C4-2B cells.
as §1

22Rv1 cells [21] = test: WST cell viability assay in 22Rv1 cells; type: cell-based
Procedure: as §1

LNCaP cells [22] = test: Imaging of LnCaP cells (cell density); type: cell-based; settings: FIG. 18, 12 days' treatment
Description: FIG. 18. Imaging of LnCaP cells after 12 days' treatment with the indicated compounds.

EED [23] = test: Western blot of EED in SU-DHL4 cells; type: cell-based; settings: FIG. 33, 48 hours
Procedure: as §3

[24] = Pharmacokinetics in mice, IP cassette dosing, plasma LC/MS/MS; type: in vivo, C57Bl/6 mouse; settings: mouse, C57Bl/6 mice, 4 mg/kg IP, cassette format
Procedure: FIG. 35. Pharmacokinetics of indicated compounds. Compounds were administered to C57Bl/6 mouse mice at 4 mg/kg using intraperitoneal (IP) injection in cassette format. Plasma was collected at the indicated time points and analyzed by LC/MS/MS using standard methods.
For assessing pharmacokinetics, compounds were administered to C57Bl/6 mouse mice at 4 mg/kg using intraperitoneal (IP) injection in cassette format. Plasma was collected at the indicated time points and analyzed by LC/MS/MS using standard methods.

SU-DHL6 cells = test: WST cell viability assay in SU-DHL6 cells; type: cell-based
Procedure: as §1

[25] = Table 6, WST1 with higher dose on SU-DHL4
[26] = Table 8, WST1 within 1 μM on SU-DHL4
[27] = Table 9, WST1 within 1 μM on SU-DHL4 (as titled)
[28] = Table 7, WST1 with higher dose on SU-DHL6

SMILES: CCN(c1cc(-c2ccc(CN3CCN(C(=O)CCCCCCCCCC(=O)N[C@H](C(=O)N4C[C@H](O)C[C@H]4C(=O)NCc4ccc(-c5scnc5C)cc4)C(C)(C)C)CC3)cc2)cc(C(=O)NCc2c(C)cc(C)[nH]c2=O)c1C)C1CCOCC1 [Compound 6272]
- Anti-proliferative effect (WST cell viability) (SU-DHL4 cells; FIG. 29, SU-DHL4, 4 days' treatment): greater anti-proliferative effect than EPZ-6438
- IC50 (SU-DHL4 cells; SU-DHL-4, Table 8, WST1 test cell viability within 1 μM on SU-DHL4): 2500 nM
- IC50 (SU-DHL4 cells; SU-DHL-4, Table 9, WST1 test cell viability within 1 μM on SU-DHL4 (as titled)): 337 nM
- HillSlope (best-fit value) (SU-DHL4 cells; [25]): −0.093
- HillSlope (best-fit value) (SU-DHL4 cells; [26]): −0.2858
- HillSlope (best-fit value) (SU-DHL4 cells; [27]): −1.235
- logIC50 (best-fit value) (SU-DHL4 cells; [27]): −0.4722
- Colonies (LNCaP cells [1]): significant reduction in the colonies
- Degradation of EZH2 (EZH2 [2]): significant degradation
- Colonies (C4-2B cells [3]): significant reduction in the colonies
- Degradation of EZH2 (EZH2 [4]): significant degradation
- Inhibition of proliferation (WST) (LNCaP cells [5]; LNCaP): similarly potent effects on inhibiting the proliferation
- Anti-proliferative effect (WST cell viability) (LNCaP cells [5]; FIG. 23, LNCaP, 5 days' treatment, concentration range): greater anti-proliferative effect than EPZ-6438
- IC50 (LNCaP cells [5]; Homo sapiens, Table 3, WST1 test cell viability on LNCaP, [Inhibitor] vs. normalized response, read-out: IC50 (best-fit value)): 758 nM
- Cell proliferation by phase object confluence (C4-2B cells [6]): decrease C4-2B proliferation
- Reduction of PRC2 component SUZ12 (SUZ12 [7]): reduction of PRC2 component SUZ12
- Anti-proliferative effect (Cell titer glo cell viability) (22Rv1 cells [8]; FIG. 25, 22Rv1, 5 days' treatment, concentration range): greater anti-proliferative effect than EPZ-6438
- IC50 (22Rv1 cells [8]; Homo sapiens, Table 5, Cell titer glo test cell viability with different doses on 22Rv1, read-out: IC50 (best-fit value)): 692 nM
- Cell density by imaging (C4-2B cells [9]): significant reduction in the cell density
- Degradation of SUZ12 (SUZ12 [10]): significant degradation
- H3K27me3 levels (H3K27me3): reduced H3K27me3 levels
- Inhibition of cell proliferation versus EPZ-6438 (lymphoma cell lines): more potent and effective at inhibiting cell proliferation than the catalytic EZH2 inhibitor EPZ-6438
- Inhibition of cell proliferation versus EPZ-6438 [11]: more potent and effective at inhibiting cell proliferation than the catalytic EZH2 inhibitor EPZ-6438
- Degrading EZH2 protein at nM doses, versus 2304 (EZH2 [12]; FIG. 10, 24 hours): more effective than 2304
- Degradation of EZH2 (EZH2 [12]): strong degradation of EZH2
- EZH2 protein (western blot) (EZH2 [13]): significant reduction in EZH2
- Degradation of EED (EED [14]): significant degradation
- EZH2 protein (western blot) (EZH2 [15]): significant reduction in EZH2
- Degradation of SUZ12 (SUZ12 [16]): significant degradation
- Cell proliferation by phase object confluence (LNCaP cells [17]): greatest ability to decrease LnCaP proliferation
- Degree of ubiquitination of EZH2 (EZH2 [18]): much greater degree of ubiquitination of EZH2 than the inactive compound 6286
- Ability to degrade EZH2 with esiRNA knockdown of VHL (EZH2 [19]; VHL knockdown): inhibition of the ability of active compounds 6272 to degrade EZH2
- Ability to degrade EZH2 with siRNA control (VHL present) (EZH2 [19]; siRNA control lane): able to strongly degrade EZH2
- Inhibition of proliferation (WST) (C4-2B cells [20]): similarly potent effects on inhibiting the proliferation
- Anti-proliferative effect (WST cell viability) (22Rv1 cells [21]; FIG. 24, 22Rv1, 5 days' treatment, concentration range): greater anti-proliferative effect than EPZ-6438
- IC50 (22Rv1 cells [21]; Homo sapiens, Table 4, WST1 cell viability with different doses on 22Rv1, read-out: IC50 (best-fit value)): 1340 nM
- Cell density by imaging (LNCaP cells [22]): significant reduction in the cell density
- Degradation of EED (EED [23]): significant degradation
- half-life [24]: 3.5 to 6 h
- Anti-proliferative effect (WST cell viability) (SU-DHL6 cells; FIG. 30, SU-DHL6, 4 days' treatment): greater anti-proliferative effect than EPZ-6438
- Anti-proliferative effect (WST cell viability) at 1 μM (SU-DHL6 cells; FIG. 32, SU-DHL6, 4 days' treatment, 1 μM): greater anti-proliferative effect than EPZ-6438
- IC50 (SU-DHL6 cells; Homo sapiens, SU-DHL-6, Table 7, WST1 test cell viability with higher dose on SU-DHL6, variable slope, read-out: IC50 (best-fit value)): 892 nM

SMILES: CCN(c1cc(-c2ccc(CN3CCN(CCCCCCCCCCCC(=O)N[C@H](C(=O)N4C[C@H](O)C[C@H]4C(=O)NCc4ccc(-c5scnc5C)cc4)C(C)(C)C)CC3)cc2)cc(C(=O)NCc2c(C)cc(C)[nH]c2=O)c1C)C1CCOCC1 [Compound 6287]
- Colonies (LNCaP cells [1]): significant reduction in the colonies
- Colonies (C4-2B cells [3]): significant reduction in the colonies
- Inhibition of proliferation (WST) (LNCaP cells [5]; LNCaP): similarly potent effects on inhibiting the proliferation
- Cell proliferation by phase object confluence (C4-2B cells [6]): decrease C4-2B proliferation
- Reduction of PRC2 component SUZ12 (SUZ12 [7]): reduction of PRC2 component SUZ12
- Cell density by imaging (C4-2B cells [9]): significant reduction in the cell density
- H3K27me3 levels (H3K27me3): reduced H3K27me3 levels
- Degradation of EZH2 (EZH2 [12]): strong degradation of EZH2
- EZH2 protein (western blot) (EZH2 [13]): significant reduction in EZH2
- EZH2 protein (western blot) (EZH2 [15]): significant reduction in EZH2
- Cell proliferation by phase object confluence (LNCaP cells [17]): greatest ability to decrease LnCaP proliferation
- Inhibition of proliferation (WST) (C4-2B cells [20]): similarly potent effects on inhibiting the proliferation
- Cell density by imaging (LNCaP cells [22]): significant reduction in the cell density
- Cmax [24]: 487 nM
- half-life [24]: 6.5 h

SMILES: CCN(c1cc(-c2ccc(CN3CCOCC3)cc2)cc(C(=O)NCc2c(C)cc(C)[nH]c2=O)c1C)C1CCOCC1 [EPZ-6438, reference compound]
- HillSlope (best-fit value) (SU-DHL4 cells; [25]): 0.005835
- HillSlope (best-fit value) (SU-DHL4 cells; [26]): −0.1692
- HillSlope (best-fit value) (SU-DHL4 cells; [27]): −0.4432
- Colonies (LNCaP cells [1]): reduction in colonies versus DMSO negative control
- Colonies (C4-2B cells [3]): reduction in colonies versus DMSO negative control
- Degradation of SUZ12 (SUZ12 [10]): little or no effect
- Degradation of EED (EED [14]): little or no effect
- Degradation of SUZ12 (SUZ12 [16]): little or no effect
- Degradation of EED (EED [23]): little or no effect
- HillSlope (best-fit value) (SU-DHL6 cells; [28]): −0.03015
- logIC50 (best-fit value) (SU-DHL6 cells; [28]): Unstable
